# “Also recorded” adds a separate entry of the source. Read-outs that look alike come from different tables or passages of the source.
# What was measured:
# [1] = system: STAT3 DNA-binding activity; assay: Electrophoretic mobility shift assay (EMSA) of nuclear extracts; type: cell-based; settings: nuclear extracts from v-Src/NIH 3T3 and A549 cells
# Protocol: Nuclear Extract Preparation and Gel Shift Assay. Nuclear extract preparation and electrophoretic mobility shift assay were carried out as previously described (Turkson, J. et al. Mol. Cell Biol., 1999, 19:7519-7528). The ^32P-radiolabeled oligonucleotide probe is hSIE (high affinity sis-inducible element, m67 variant, 5′-[…]-3′) (SEQ ID NO. 1) that binds STAT1 and STAT3.
# phosphotyrosine JAK2 = assay: Western blotting for phosphotyrosine JAK2; type: cell-based, human
# Protocol: (§1) Western Blotting. Treated cell samples were lysed in 30 mM Hepes, pH 7.5, 10 mM NaCl, 5 mM MgCl2, 25 mM NaF, 1 mM EGTA, 1% Triton-X-100, 10% glycerol, 2 mM sodium orthovanadate, 10 μg/ml aprotinin, 10 μg/ml soybean trypsin inhibitor, 25 μg/ml leupeptin, 2 mM PMSF, and 6.4 mg/ml p-nitrophenylphosphate. Phospho-STAT3, phospho-AKT, phospho-MEK, and phospho-p42/p44 MAPK antibodies were obtained from Cell Signaling Technologies, Cambridge, Mass. Antibodies to STAT3, JAK2, and phospho-INK were purchased from Santa Cruz Biotechnology, Santa Cruz, Calif. Phospho-JAK2 antibody came from Upstate Biotechnology, Lake Placid, N.Y. Membranes were blocked in either 5% milk in PBS, pH 7.4, containing 0.1% Tween-20 (PBS-T) or 1% BSA in TBS, pH 7.5, containing 0.1% Tween-20 (TBS-T). Phospho-specific antibodies (excepting P-MAPK and P-JNK) were incubated in 1% BSA in TBS-T while all other antibodies were diluted in 5% milk in PBS-T for either 2 hr at room temperature or overnight at 4° C. HRP-conjugated secondary antibodies (Jackson ImmunoResearch) were diluted in 5% milk in either PBS-T or TBS-T at 1:1000 dilution for one hour at room temperature. Western blots were visualized using enhanced chemiluminescence as described previously (Blaskovich, M. A. et al. Nat. Biotechnol., 2000, 18:1065-1070).
# B16-F10 tumors = assay: Antitumor activity, B16-F10 melanoma in C57 black mice; type: in vivo; settings: 1 mg/Kg/day
# Source text: (§2) Antitumor Activity in the Nude Mouse Tumor Xenograft Model. Nude mice and C57 BL-6 black mice (National Cancer Institute, Bethesda, Md.) were maintained in accordance with the Institutional Animal Care and Use Committee (IACUC) procedures and guidelines. v-Src- and oncogenic H-Ras-transformed NIH 3T3, A549, MDA-MB-468 and Calu-1 cells were harvested, resuspended in PBS and injected s.c. into the right and left flank (10×10^6 cells per flank) of 8 week old female nude mice as reported previously (Sun, J. et al. Cancer Res., 1999, 59:4919-4926). Similarly, murine B16-F10 Melanoma cells were injected s.c. into the right and left flank (10^6 cells per flank) of C57 black mice. When tumors reached about 150 mm^3, animals were randomized (five animals per group; two tumors per animal) and dosed i.p. with 0.2 ml once daily. Control animals received DMSO (20%) vehicle whereas treated animals were injected with JSI-124 (1 mg/kg/day) in 20% DMSO in water. The tumor volumes were determined by measuring the length (l) and the width (w) and calculating the volume (V=1w^2/2) as described previously (Sun, J. et al. Cancer Res., 1999, 59:4919-4926). Statistical significance between control and treated animals were evaluated by using Student's t-test. […] Percent surviving mice was determined by monitoring the death of mice until all mice died. […]
# Ras/NIH 3T3 tumors = assay: Antitumor activity, oncogenic Ras-transformed NIH 3T3 tumors in nude mice; type: in vivo; settings: 1 mg/kg/day i.p.
# Source text: as §2
# phospho-Erk1/2 = assay: Western blotting for phospho-Erk1/2; type: cell-based, human; settings: A549 and MDA-MB-468 cells, up to 10 μM
# Protocol: as §1
# phosphotyrosine STAT3 = assay: Western blotting for phosphotyrosine STAT3 in cancer cell lines; type: cell-based, human
# Protocol: as §1
# Immunoprecipitation of STAT3. A549 cells were treated for 4 hr with vehicle or JSI-124, then lysed in 150 mM Hepes, pH 7.5, 150 mM NaCl, 1 mM EDTA, 0.5% Nonidet P-40 (NP-40), 10% glycerol, 5 mM NaF, 1 mM DTT, 1 mM PMSF, 2 mM sodium orthovanadate, and 5 μg/ml leupeptin. Sample lysates were collected and cleared, then 500 μg of lysate was immunoprecipitated with 50 ng STAT3 antibody overnight at 4° C. then rocked with 25 μl Protein A/G PLUS agarose (Santa Cruz Biotechnology) for 1 hr at 4° C. Samples were washed four times with lysis buffer then boiled in 2×SDS-PAGE sample buffer and run on 10% SDS-PAGE gel. Protein was transferred to nitrocellulose and then blotted as above for both phospho-specific STAT3 and STAT3.
# Calu-1 tumors = assay: Antitumor activity, Calu-1 xenograft in nude mice; type: in vivo; settings: 1 mg/kg/day i.p.
# Source text: as §2
# B16-F10 melanoma = assay: Mouse survival, B16-F10 melanoma in C57 black mice; type: in vivo; settings: 1 mg/Kg/day for 25 days, B16-F10 s.c.
# Source text: Antitumor Activity in the Nude Mouse Tumor Xenograft Model. Nude mice and C57 BL-6 black mice (National Cancer Institute, Bethesda, Md.) were maintained in accordance with the Institutional Animal Care and Use Committee (IACUC) procedures and guidelines. v-Src- and oncogenic H-Ras-transformed NIH 3T3, A549, MDA-MB-468 and Calu-1 cells were harvested, resuspended in PBS and injected s.c. into the right and left flank (10×10^6 cells per flank) of 8 week old female nude mice as reported previously (Sun, J. et al. Cancer Res., 1999, 59:4919-4926). Similarly, murine B16-F10 Melanoma cells were injected s.c. into the right and left flank (10^6 cells per flank) of C57 black mice. When tumors reached about 150 mm^3, animals were randomized (five animals per group; two tumors per animal) and dosed i.p. with 0.2 ml once daily. Control animals received DMSO (20%) vehicle whereas treated animals were injected with JSI-124 (1 mg/kg/day) in 20% DMSO in water. The tumor volumes were determined by measuring the length (l) and the width (w) and calculating the volume (V=1w^2/2) as described previously (Sun, J. et al. Cancer Res., 1999, 59:4919-4926). Statistical significance between control and treated animals were evaluated by using Student's t-test. For the mouse survival experiments, C57 BL-6 black mice were implanted s.c. with B16-F10 cells (10^5 to 10^6 cells per flank). On day 5 after implantation the mice were randomized (6 animals per group) and treated with either vehicle or JSI-124 (1 mg/Kg/day) for 25 days. Percent surviving mice was determined by monitoring the death of mice until all mice died. Two experiments of 12 animals each (6 control and 6 treated with JSI-124) were carried out. For statistical analysis: for each of the two experiments, mice receiving JSI-124 were compared to those receiving vehicle control with respect to survival using the permutation log rank test as implemented in the statistical software package, ProcStatXact (p-values are two sided and exact).
# [2] = personal communication; cited from earlier work
compound,measurement,setting,value
"CC(C)(O)/C=C/C(=O)[C@](C)(O)[C@H]1[C@H](O)C[C@@]2(C)[C@@H]3CC=C4[C@@H](C=C(O)C(=O)C4(C)C)[C@]3(C)C(=O)C[C@]12C [JSI-124, cucurbitacin I]",STAT3 DNA-binding activity (EMSA),[1],greatly reduced
same,levels of tyrosine phosphorylated JAK2,"phosphotyrosine JAK2; A549 and MDA-MB-468 cells, various concentrations, 4 hr",effective at suppressing the levels of tyrosine phosphorylated JAK2
same,inhibition of phospho JAK2 levels (in words),"phosphotyrosine JAK2; A-549 cells, 0-10 μM",inhibits both phospho STAT3 and phospho JAK2 levels
same,IC50,"phosphotyrosine JAK2; A-549 cells, Western blotting, read-out: IC50 for phospho-JAK2",0.2 µM
same,average size of B16-F10 tumors,B16-F10 tumors,588±94
same,inhibition of B16-F10 tumor growth,B16-F10 tumors,56%
same,growth of Ras/NIH 3T3 tumors,Ras/NIH 3T3 tumors,resistant
same,phospho-Erk1/2 levels,phospho-Erk1/2,no inhibitory effect; also recorded: increased the levels of phosphorylation
same,levels of tyrosine phosphorylated STAT3 (Western blot),"phosphotyrosine STAT3; 10 μM, 4 hr, A549, MDA-MB-468, MDA-MB-231, Panc-1 and v-Src NIH 3T3 cells",very effective at reducing the levels of tyrosine phosphorylated STAT3
same,phosphotyrosine STAT3 levels after STAT3 immunoprecipitation,"phosphotyrosine STAT3; 10 μM, 4 hr, A549 and MDA-MB-468 cells",reduced phosphotyrosine STAT3 to barely detectable levels
same,"levels of tyrosine phosphorylated STAT3, various concentrations","phosphotyrosine STAT3; A549 and MDA-MB-468 cells, 0-10 μM, 4 hr",reduction of the levels of tyrosine phosphorylated STAT3; also recorded: suppression of phospho-STAT3 levels in both cell lines
same,inhibition of phospho STAT3 levels (in words),"phosphotyrosine STAT3; A-549 cells, 0-10 μM",inhibits both phospho STAT3 and phospho JAK2 levels
same,IC50,"phosphotyrosine STAT3; A-549 cells, Western blotting, read-out: IC50 for phospho-STAT3",0.2 µM
same,IC50,phosphotyrosine STAT3; read-out: IC50 as suppressor of the JAK/STAT3 tumor survival pathway,0.2 µM
same,effect on growth of Calu-1 tumors,Calu-1 tumors,little effect
same,T50 (day until which 50% of mice survived),B16-F10 melanoma,34 days
same,T50 increase versus vehicle,B16-F10 melanoma,13 days
same,day by which all mice died,B16-F10 melanoma,42 days
same,day by which none of the treated mice were dead,B16-F10 melanoma,23 days
same,edema at the subcutaneous site of injection (NCI Developmental Therapeutics Program),[2],edema was observed at the subcutaneous site of injection
